# Where a SMILES comes first, the peptide text is derived from it. Where no end group is shown, it is not given here. The star is where a group is joined. Myristoyl = CCCCCCCCCCCCCC(=O)*
# Tests used:
# Solubility of peptide = assay type: physicochemical
# isolated rat hearts = assay: Myocardial ischemia/reperfusion (I/R) injury in isolated rat hearts (Langendorff, ex vivo); conditions: for Final Coronary Flow / Final Heart Rate / Final LVDP / Final LVEDP / Final LVESP / Final dP/dtmax / Final dP/dtmin: 50 min post-reperfusion; for Initial Coronary Flow / Initial Heart Rate / Initial LVDP / Initial LVEDP / Initial LVESP / Initial dP/dtmax / Initial dP/dtmin: baseline before ischemia
# Experimental: Rat hearts were isolated from anesthetized male Sprague Dawley rats (275-325 g), placed in ice-cold Krebs' buffer, and placed onto a Langendorff heart apparatus and retro perfused with Krebs' buffer at a constant pressure of 80 mmHg (FIG. 1). A pressure transducer measures heart rate, left ventricular end-systolic pressure, end-diastolic pressure, dP/dt max, and dP/dt min. Coronary flow is measured via a flow probe connected to the perfusion tubing. Cardiac function was recorded throughout the experimental protocol using a pressure transducer inserted into the left ventricle (15 min baseline; global I(30 min)/R(50 min)). Selected peptides of TABLE 1 or vehicle (control [0.05 to 0.2% Dimethylsulfoxide) were given during the first 5 min of reperfusion. All peptide inhibitors or activators were dissolved in 28% DMSO and the final concentration of DMSO with peptides or without peptides (control I/R hearts) delivered to all hearts was 0.06%. Statistical analysis was performed using ANOVA and Bonferroni-Dunn post-hoc test.
# At the end of the experimental protocol, hearts were removed from the Langendorff apparatus, and frozen for 30 min at −20° C. Hearts were sectioned (2 mm) from base to apex and placed in 1% TTC for ˜10 min at 37° C. Viable tissue stained red and infarcted tissue was unstained (pale). Total tissue sections were weighed and infarcted tissue was separated from viable tissue and weighed to determine infarct size (i.e. infarct tissue weight/total tissue weight).
# [1] = tested on: rat polymorphonuclear leukocytes (PMNs); assay: PMA-stimulated superoxide release in rat polymorphonuclear leukocytes (ferricytochrome c reduction, 550 nm); assay type: cell-based; conditions: for reduction of PMA (100 nM) induced leukocyte superoxide release: vs untreated PMA controls
# Experimental: Change in absorbance at 550 nm via ferricytochrome c reduction by superoxide after stimulation with 100 nM phorbol 12-myristate 13-acetate (PMA) from time 0 to 390 sec was monitored in rat polymorphonuclear leukocytes (PMNs) (5×10^6) incubated for 15 min at 37° C. in the presence/absence of unconjugated PKCβII activator (PKCβII+) (SVEIWD (SEQ ID NO: 23)) or inhibitor (PKCβII−) (SLNPEWNET(SEQ ID NO: 5)), Myr−PKCβII+/−, Myr−PKCβII− scram (Myr-WNPESLNTE (Myristoylated SEQ ID NO: 17), Myr−TAT−PKC|II− (Myristoylated SEQ ID NO: 15) (all 20 μM) or superoxide dismutase (SOD; 10 μg/mL) (FIG. 7). Stock concentrations of compounds were dissolved in DMSO to yield a final concentration not greater that 0.2%. #: p<0.05 vs PMA, Native PKC βII+, Myr−PKC βII+ and Myr−TAT−PKC βII−; **: p<0.01 vs. all groups except Myr−TAT−PKC βII− or SOD; ++: p<0.01 vs. all groups. ANOVA post-hoc analysis was conducted using Bonferroni-Dunn.
# The time course of changes in absorbance are summarized in FIGS. 8 (concentration response of Myr+TAT PKCβII−) and 9 (comparison of Myr+TAT+PKCβII− and Myr−PKCβII−, Myr−PKCβII− scrambled, and PKCβII− analogues and PMA controls). The peak response was reached by 300 seconds and maintained a plateau to 390 seconds, Myr+TAT+PKCβII− (20 μM; n=5) reduced phorbol 12-myristate 13-acetate (PMA, 100 nM) induced leukocyte superoxide release by 80%—a degree that was greater than all other study groups (p<0.01). In contrast, the Myr+PKCβII− (20 μM; n=27) reduced leukocyte superoxide release by only 30% (20 μM; n=27), again supporting the concept that the dual Myr−TAT conjugation produced greater results and reduced leukocyte superoxide release by ˜80% and ˜65% as compared to untreated PMA controls (n=74) and Myr+PKCβII− (20 μM; n=27), respectively.
# [2] = 10 μM, I(30 min)/R(50 min), infarct tissue weight/total tissue weight
# [3] = ex vivo rat I/R hearts, FIG. 4, concentration not given
molecule,measurement,setting,value
"CCCCCCCCCCCCCC(=O)N[C@@H](CCC(=O)O)C(=O)N[C@@H](C)C(=O)N[C@H](C(=O)N[C@@H](CO)C(=O)N[C@@H](CC(C)C)C(=O)N[C@@H](CCCCN)C(=O)N1CCC[C@H]1C(=O)N[C@H](C(=O)O)[C@@H](C)O)C(C)C [Myr + PKCε-, Myr-EAVSLKPT] (Myristoyl-EAVSLKPT-OH; C-terminus assumed)",solubility,Solubility of peptide,≤ 10 mM
same,concentration for similar restoration of post-reperfused cardiac function relative to Myr+TAT+PKCε−,isolated rat hearts,100 ×
same,reduction of infarct size compared to control I/R hearts,isolated rat hearts; 10 μM,did not reduce infarct size
same,restoration of post-reperfused cardiac function,isolated rat hearts; 10 μM,ineffective
same,Final Coronary Flow,isolated rat hearts; 10 μM,10 ± 1 mL/min
same,Final Heart Rate,isolated rat hearts; 10 μM,233 ± 10 BPM
same,Final LVDP,isolated rat hearts; 10 μM,46 ± 8 mmHg
same,Final LVEDP,isolated rat hearts; 10 μM,58 ± 3 mmHg
same,Final LVESP,isolated rat hearts; 10 μM,104 ± 6 mmHg
same,Final dP/dtmax,isolated rat hearts; 10 μM,723 ± 84 mmHg/s
same,Final dP/dtmin,isolated rat hearts; 10 μM,−694 ± 167 mmHg/s
same,Infarct Size,isolated rat hearts; [2],15 ± 4%
same,Initial Coronary Flow,isolated rat hearts; 10 μM,17 ± 2 mL/min
same,Initial Heart Rate,isolated rat hearts; 10 μM,258 ± 8 BPM
same,Initial LVDP,isolated rat hearts; 10 μM,90 ± 5 mmHg
same,Initial LVEDP,isolated rat hearts; 10 μM,6 ± 1 mmHg
same,Initial LVESP,isolated rat hearts; 10 μM,95 ± 5 mmHg
same,Initial dP/dtmax,isolated rat hearts; 10 μM,2294 ± 108 mmHg/s
same,Initial dP/dtmin,isolated rat hearts; 10 μM,−1548 ± 92 mmHg/s
Myr-LSETKPAV (Myristoyl-LSETKPAV) [Myr + PKCε- Scram.],Final Coronary Flow,isolated rat hearts; 10 μM,8 ± 2 mL/min
same,Final Heart Rate,isolated rat hearts; 10 μM,236 ± 11 BPM
same,Final LVDP,isolated rat hearts; 10 μM,51 ± 9 mmHg
same,Final LVEDP,isolated rat hearts; 10 μM,56 ± 8 mmHg
same,Final LVESP,isolated rat hearts; 10 μM,107 ± 4 mmHg
same,Final dP/dtmax,isolated rat hearts; 10 μM,958 ± 265 mmHg/s
same,Final dP/dtmin,isolated rat hearts; 10 μM,−727 ± 133 mmHg/s
same,Infarct Size,isolated rat hearts; [2],14 ± 3%
same,Initial Coronary Flow,isolated rat hearts; 10 μM,19 ± 3 mL/min
same,Initial Heart Rate,isolated rat hearts; 10 μM,278 ± 10 BPM
same,Initial LVDP,isolated rat hearts; 10 μM,87 ± 4 mmHg
same,Initial LVEDP,isolated rat hearts; 10 μM,9 ± 2 mmHg
same,Initial LVESP,isolated rat hearts; 10 μM,96 ± 6 mmHg
same,Initial dP/dtmax,isolated rat hearts; 10 μM,2307 ± 55 mmHg/s
same,Initial dP/dtmin,isolated rat hearts; 10 μM,−1571 ± 72 mmHg/s
Myr-SLNPEWNET (Myristoyl-SLNPEWNET) [Myr+PKCβII−],reduction of PMA (100 nM) induced leukocyte superoxide release,[1]; 20 μM,30%
same,Infarct Size,isolated rat hearts; [3],13±2%
Myr-WNPESLNTE (Myristoyl-WNPESLNTE) [Myr−PKCβII− scrambled],effect on PMA induced leukocyte superoxide release (in words),[1]; 20 μM,increased
same,Infarct Size,isolated rat hearts; [3],22±2%
Myr-YGRKKRRQRRRCCLSETKPAV (Myristoyl-YGRKKRRQRRRCCLSETKPAV; cysteine pairing not given here) [Myr + TAT + PKCε- Scram.],Final Coronary Flow,isolated rat hearts; 1 nM,7 ± 2 mL/min
same,Final Heart Rate,isolated rat hearts; 1 nM,225 ± 1 BPM
same,Final LVDP,isolated rat hearts; 1 nM,50 ± 11 mmHg
same,Final LVEDP,isolated rat hearts; 1 nM,53 ± 4 mmHg
same,Final LVESP,isolated rat hearts; 1 nM,103 ± 14 mmHg
same,Final dP/dtmax,isolated rat hearts; 1 nM,993 ± 195 mmHg/s
same,Final dP/dtmin,isolated rat hearts; 1 nM,−760 ± 210 mmHg/s
same,Infarct Size,"isolated rat hearts; 1 nM, I(30 min)/R(50 min), infarct tissue weight/total tissue weight",19 ± 2%
same,Initial Coronary Flow,isolated rat hearts; 1 nM,15 ± 1 mL/min
same,Initial Heart Rate,isolated rat hearts; 1 nM,278 ± 10 BPM
same,Initial LVDP,isolated rat hearts; 1 nM,87 ± 1 mmHg
same,Initial LVEDP,isolated rat hearts; 1 nM,6 ± 0.4 mmHg
same,Initial LVESP,isolated rat hearts; 1 nM,92 ± 1 mmHg
same,Initial dP/dtmax,isolated rat hearts; 1 nM,2267 ± 87 mmHg/s
same,Initial dP/dtmin,isolated rat hearts; 1 nM,−1490 ± 82 mmHg/s
same,Final Coronary Flow,isolated rat hearts; 100 nM,12 ± 4 mL/min
same,Final Heart Rate,isolated rat hearts; 100 nM,295 ± 29 BPM
same,Final LVDP,isolated rat hearts; 100 nM,36 ± 12 mmHg
same,Final LVEDP,isolated rat hearts; 100 nM,57 ± 10 mmHg
same,Final LVESP,isolated rat hearts; 100 nM,93 ± 9 mmHg
same,Final dP/dtmax,isolated rat hearts; 100 nM,706 ± 223 mmHg/s
same,Final dP/dtmin,isolated rat hearts; 100 nM,−677 ± 222 mmHg/s
same,Infarct Size,"isolated rat hearts; 100 nM, I(30 min)/R(50 min), infarct tissue weight/total tissue weight",14 ± 3%
same,Initial Coronary Flow,isolated rat hearts; 100 nM,21 ± 6 mL/min
same,Initial Heart Rate,isolated rat hearts; 100 nM,271 ± 16 BPM
same,Initial LVDP,isolated rat hearts; 100 nM,91 ± 5 mmHg
same,Initial LVEDP,isolated rat hearts; 100 nM,9 ± 2 mmHg
same,Initial LVESP,isolated rat hearts; 100 nM,100 ± 4 mmHg
same,Initial dP/dtmax,isolated rat hearts; 100 nM,2300 ± 189 mmHg/s
same,Initial dP/dtmin,isolated rat hearts; 100 nM,−1545 ± 117 mmHg/s
same,Final Coronary Flow,isolated rat hearts; 10 μM,3 ± 0.1 mL/min
same,Final Heart Rate,isolated rat hearts; 10 μM,684 ± 167 BPM
same,Final LVDP,isolated rat hearts; 10 μM,3 ± 2 mmHg
same,Final LVEDP,isolated rat hearts; 10 μM,70 ± 10 mmHg
same,Final LVESP,isolated rat hearts; 10 μM,72 ± 8 mmHg
same,Final dP/dtmax,isolated rat hearts; 10 μM,27 ± 9 mmHg/s
same,Final dP/dtmin,isolated rat hearts; 10 μM,−24 ± 8 mmHg/s
same,Infarct Size,isolated rat hearts; [2],16 ± 6%
same,Initial Coronary Flow,isolated rat hearts; 10 μM,18 ± 1 mL/min
same,Initial Heart Rate,isolated rat hearts; 10 μM,275 ± 12 BPM
same,Initial LVDP,isolated rat hearts; 10 μM,86 ± 1 mmHg
same,Initial LVEDP,isolated rat hearts; 10 μM,6 ± 1 mmHg
same,Initial LVESP,isolated rat hearts; 10 μM,92 ± 0.3 mmHg
same,Initial dP/dtmax,isolated rat hearts; 10 μM,2309 ± 69 mmHg/s
same,Initial dP/dtmin,isolated rat hearts; 10 μM,−1604 ± 71 mmHg/s
Myr-YGRKKRRQRRRCCSLNPEWNET (Myristoyl-YGRKKRRQRRRCCSLNPEWNET; cysteine pairing not given here) [Myr+TAT+PKCβII−],effect on PMA induced leukocyte superoxide release (in words),[1]; 20 μM,virtually identical to the SOD standard
same,reduction of leukocyte superoxide release as compared to Myr+PKCβII− (20 μM),[1]; 20 μM,~65%
same,reduction of PMA (100 nM) induced leukocyte superoxide release,[1]; 20 μM,80%
same,Infarct Size,isolated rat hearts; [3],5%
SLNPEWNET (Atificially synthesized) [PKCβII−],effect on PMA induced leukocyte superoxide release (in words),[1]; 20 μM,did not exert a significant inhibition
"Superoxide dismutase [SOD, reference compound]",attenuation of leukocyte superoxide release,"[1]; 10 ug/ml, positive control",~94%
YGRKKRRQRRRCCEAVSLKPT (not fully specified; cysteine pairing not given here) [TAT + PKCε-],reduction of infarct size compared to control I/R hearts,isolated rat hearts; 10 μM,did not reduce infarct size
same,Final Coronary Flow,isolated rat hearts; 10 μM,12 ± 4 mL/min
same,Final Heart Rate,isolated rat hearts; 10 μM,242 ± 18 BPM
same,Final LVDP,isolated rat hearts; 10 μM,37 ± 12 mmHg
same,Final LVEDP,isolated rat hearts; 10 μM,63 ± 2 mmHg
same,Final LVESP,isolated rat hearts; 10 μM,100 ± 13 mmHg
same,Final dP/dtmax,isolated rat hearts; 10 μM,678 ± 223 mmHg/s
same,Final dP/dtmin,isolated rat hearts; 10 μM,−723 ± 84 mmHg/s
same,Infarct Size,isolated rat hearts; [2],18 ± 2%
same,Initial Coronary Flow,isolated rat hearts; 10 μM,20 ± 2 mL/min
same,Initial Heart Rate,isolated rat hearts; 10 μM,285 ± 10 BPM
same,Initial LVDP,isolated rat hearts; 10 μM,86 ± 5 mmHg
same,Initial LVEDP,isolated rat hearts; 10 μM,7 ± 2 mmHg
same,Initial LVESP,isolated rat hearts; 10 μM,93 ± 3 mmHg
same,Initial dP/dtmax,isolated rat hearts; 10 μM,2408 ± 126 mmHg/s
same,Initial dP/dtmin,isolated rat hearts; 10 μM,−1735 ± 149 mmHg/s
